The values below come from patent US20250277001A1, “PEPTIDE DERIVATIVES AND RELATED USES AS OREXIN AGONISTS” (CENTESSA PHARMACEUTICALS (UK) LIMITED, priority 2022, published 2025).

Read-outs that look alike come from different tables or passages of the source. Where a SMILES comes first, the peptide text is derived from it. [ ]: non-standard residue; d: D form. The star is where a group is joined. Malonyl(2,2-Me2,histaminyl) = CC(C)(C(=O)NCCc1cnc[nH]1)C(=O)*; hArg(Et2) = CCN=C(NCC)NCCCC[C@H](N)C(=O)O; d(hArg) = N=C(N)NCCCC[C@@H](N)C(=O)O; Gly(NCH2CH2Ph) = O=C(O)CNCCc1ccccc1; Hyp = O=C(O)[C@@H]1C[C@@H](O)CN1; hArg = N=C(N)NCCCC[C@H](N)C(=O)O; NMeN = CN[C@@H](CC(N)=O)C(=O)O; Aoc(2) = CCCCCC[C@H](N)C(=O)O; Phg = N[C@H](C(=O)O)c1ccccc1; Nle = CCCC[C@H](N)C(=O)O

In assay [1] the target is T1, human orexin type 1 receptor (hOX1R) (Homo sapiens, UniProt O43613).
T1 construct: expressed in transfected cells
T1 sequence (O43613 1-425): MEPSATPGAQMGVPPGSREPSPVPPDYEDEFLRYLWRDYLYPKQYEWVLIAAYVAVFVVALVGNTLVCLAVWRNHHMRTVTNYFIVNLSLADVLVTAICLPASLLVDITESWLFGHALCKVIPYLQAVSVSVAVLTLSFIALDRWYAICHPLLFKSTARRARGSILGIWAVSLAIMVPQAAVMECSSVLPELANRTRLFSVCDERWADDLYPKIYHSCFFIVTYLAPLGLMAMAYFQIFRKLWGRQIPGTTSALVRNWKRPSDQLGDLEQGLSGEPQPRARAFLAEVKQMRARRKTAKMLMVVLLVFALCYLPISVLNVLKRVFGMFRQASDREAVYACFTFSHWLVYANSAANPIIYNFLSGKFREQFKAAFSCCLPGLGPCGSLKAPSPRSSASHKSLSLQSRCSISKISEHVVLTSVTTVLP
The assay is described as follows: Measurement of orexin type 1 receptor agonist activity (CHO cells, FLIPR TETRA intracellular Ca2+). The class given is cell-based. From the text: (§1) In some embodiments, the assay uses cells stably expressing either human orexin type 2 or human orexin type 1 receptor. In some embodiments, the cells are obtained by inserting the Orexin receptor cDNA into pcDNA3.1(+) plasmid vector, identifying clones by G418 drug resistance selection, and/or growing a single clone for OX2R-CHO and OX1R-CHO in bulk. In some embodiments, the assay is detected using Fluorescent Imaging Plate Reader TETRA (FLIPR TETRA: manufactured by Molecular Devices). In some embodiments, the agonist activity of the test peptide is calculated assuming that the fluorescence value of the well containing only the dilution buffer is 0% and the fluorescence value of the well containing 10 nM human orexin A (Tocris) buffer is 100%.
(§2) Stable cell line generation. Obtainment of cells stably expressing either human orexin type 2 or human orexin type 1 receptor: to obtain a stable cell line the Orexin receptor cDNA was inserted into pcDNA3.1(+) plasmid vector and clones identified by G418 drug resistance selection. […] A single clone for OX2R-CHO and OX1R-CHO were grown in bulk and frozen to generate a cell bank for routine screening.
(§3) Measurement of orexin type 1 receptor agonist activity. Chinese hamster ovary (CHO) cells expressing human orexin type 1 receptor (hOX1R) were seeded in each well of 384 well black clear bottom plates (BD Flacon) at 10,000 cells per well and cultured for 24 h in an Ham's F12 (Gibco) medium containing 10% fetal calf serum (Sigma Aldrich) under the conditions of 37° C., 5% CO2. After removal of the medium, 50 μL of assay buffer 1 (0.1% bovine serum albumin (Sigma Aldrich), 20 mM HEPES (Molecular Dimensions), […] probenecid (Sigma Aldrich), 1× Calcium 5 dye (Molecular Devices) in Hank's balanced salt solution (Invitrogen)) was added, and the cells were incubated for 60 min under the conditions of 37° C., 5% CO2. A test peptide was dissolved in dimethyl sulfoxide (Sigma Aldrich) to 1 mM, and then diluted with assay buffer 2 (20 mM HEPES, Hank's balanced salt solution, 0.1% bovine serum albumin). For the reaction, a test peptide solution (10 μl) was added using Fluorescent Imaging Plate Reader TETRA (FLIPR TETRA: manufactured by Molecular Devices), a fluorescence value (excitation wavelength 488 nm, measurement wavelength 570 nm) of each well was measured every one second for 2 min, and the agonist activity was determined using the area of the fluorescence value as an indicator of intracellular Ca^2+ concentration. The agonist activity of the test peptide was calculated assuming that the fluorescence value of the well added with only the dilution buffer was 0% and the fluorescence value of the well added with 10 nM human orexin A (Tocris) buffer was 100%. As used herein, Emax indicates the value at 1 μM concentration when orexin A is converted to a full agonist (maximum value of agonist activity: 100%).

Assay [2] addresses T2, human orexin type 2 receptor (hOX2R) (Homo sapiens, UniProt O43614).
T2 construct: expressed in transfected cells
T2 sequence (O43614 1-444): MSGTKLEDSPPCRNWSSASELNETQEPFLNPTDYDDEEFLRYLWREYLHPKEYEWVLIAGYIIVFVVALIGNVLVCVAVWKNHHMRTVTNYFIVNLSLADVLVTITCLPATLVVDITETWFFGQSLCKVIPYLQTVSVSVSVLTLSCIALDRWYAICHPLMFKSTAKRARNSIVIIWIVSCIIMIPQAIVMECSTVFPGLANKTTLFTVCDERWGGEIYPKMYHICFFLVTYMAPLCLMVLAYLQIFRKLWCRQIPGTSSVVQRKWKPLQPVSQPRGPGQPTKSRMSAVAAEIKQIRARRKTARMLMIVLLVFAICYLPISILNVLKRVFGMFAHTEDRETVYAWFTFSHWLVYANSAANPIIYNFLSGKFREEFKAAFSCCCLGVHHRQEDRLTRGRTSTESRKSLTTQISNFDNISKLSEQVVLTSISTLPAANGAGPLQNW
The assay can be described thus: Measurement of orexin type 2 receptor agonist activity (CHO cells, FLIPR TETRA intracellular Ca2+). The class given is cell-based.
Source text: as §1, §2
as §3, with “type 2” for “type 1”, “receptor (hOX2R)” for “receptor (hOX1R) were”

The mark [3] stands for this setting: 13 amino acid sequences, Example 4, read-out: OX1 pEC50 (converted).
Setting [4] is: 13 amino acid sequences, Example 4, read-out: OX2 pEC50 (converted).

As for `CCCC[C@H](NC(=O)[C@@H](NC(=O)[C@H](CC(C)C)NC(=O)[C@@H](NC(=O)CNC(=O)[C@H](C)NC(=O)[C@H](C)NC(=O)[C@H](Cc1c[nH]cn1)NC(=O)[C@H](CC(N)=O)NC(=O)CNC(=O)[C@H](CO)NC(=O)[C@H](C)NC(=O)[C@H](Cc1c[nH]c2ccccc12)NC(=O)C(C)(C)C(=O)NCCc1cnc[nH]1)[C@@H](C)CC)[C@@H](C)O)C(N)=O` [SEQ ID NO:7, CAP-TRP-ALA-SER-GLY-ASN-HIS-ALA-ALA-GLY-ILE-LEU-THR-NLE-NH2] ({Malonyl(2,2-Me2,histaminyl)}-WASGNHAAGILT[Nle]-NH2), the values for the EC50 in assay [1] (setting [3]) and in assay [2] (setting [4]) were above 316 nM and above 1.58 nM, respectively.

With `CCCC[C@H](NC(=O)[C@@H](NC(=O)[C@H](CC(C)C)NC(=O)[C@@H](NC(=O)CNC(=O)[C@@H](NC(=O)[C@H](C)NC(=O)[C@H](Cc1c[nH]cn1)NC(=O)[C@H](CC(N)=O)NC(=O)CNC(=O)[C@H](CO)NC(=O)[C@H](CCCNC(=N)N)NC(=O)[C@@H](N)Cc1c[nH]c2ccccc12)c1ccccc1)[C@@H](C)CC)[C@@H](C)O)C(N)=O` [SEQ ID NO:8, TRP-ARG-SER-GLY-ASN-HIS-ALA-Phg-GLY-ILE-LEU-THR-NLE-NH2] (H-WRSGNHA[Phg]GILT[Nle]-NH2), the EC50 in assay [1] (setting [3]) is above 316 nM; in assay [2] (setting [4]), above 1.58 nM.

For `CCCCCC[C@H](NC(=O)[C@@H](NC(=O)[C@H](CC(C)C)NC(=O)[C@@H](NC(=O)CNC(=O)[C@@H](NC(=O)[C@H](C)NC(=O)[C@H](Cc1c[nH]cn1)NC(=O)[C@H](CC(N)=O)NC(=O)CN(CCc1ccccc1)C(=O)[C@H](CCCCNC(=NCC)NCC)NC(=O)[C@@H]1CCCN1C(=O)[C@H](CCCCNC(=N)N)NC(=O)[C@H](CCC(N)=O)NC(=O)C(C)(C)C(=O)NCCc1cnc[nH]1)c1ccccc1)[C@@H](C)CC)[C@@H](C)O)C(N)=O` [compound 1] ({Malonyl(2,2-Me2,histaminyl)}-Q[hArg]P[hArg(Et2)][Gly(NCH2CH2Ph)]NHA[Phg]GILT[Aoc(2)]-NH2), the EC50 is above 10 nM in assay [1] and below 0.1 nM in assay [2].

As for `CCCCCC[C@H](NC(=O)[C@@H](NC(=O)[C@H](CC(C)C)NC(=O)[C@@H](NC(=O)CNC(=O)[C@@H](NC(=O)[C@H](C)NC(=O)[C@H](Cc1c[nH]cn1)NC(=O)[C@H](CC(N)=O)NC(=O)CN(CCc1ccccc1)C(=O)[C@H](CCCNC(=N)N)NC(=O)[C@@H]1CCCN1C(=O)[C@H](CCCCNC(=N)N)NC(=O)[C@H](CCC(N)=O)NC(=O)C(C)(C)C(=O)NCCc1cnc[nH]1)c1ccccc1)[C@@H](C)CC)[C@@H](C)O)C(N)=O` [compound 2] ({Malonyl(2,2-Me2,histaminyl)}-Q[hArg]PR[Gly(NCH2CH2Ph)]NHA[Phg]GILT[Aoc(2)]-NH2), the EC50 is above 10 nM in assay [1] and below 0.1 nM in assay [2].

As for `CCCCCC[C@H](NC(=O)[C@@H](NC(=O)[C@H](CC(C)C)NC(=O)[C@@H](NC(=O)CNC(=O)[C@@H](NC(=O)[C@H](C)NC(=O)[C@@H]1C[C@@H](O)CN1C(=O)[C@H](CC(N)=O)N(C)C(=O)CN(CCc1ccccc1)C(=O)[C@H](CCCNC(=N)N)NC(=O)[C@@H]1CCCN1C(=O)[C@H](CCCCNC(=N)N)NC(=O)[C@H](CCC(N)=O)NC(=O)C(C)(C)C(=O)NCCc1cnc[nH]1)c1ccccc1)[C@@H](C)CC)[C@@H](C)O)C(N)=O` [compound 3] ({Malonyl(2,2-Me2,histaminyl)}-Q[hArg]PR[Gly(NCH2CH2Ph)][NMeN][Hyp]A[Phg]GILT[Aoc(2)]-NH2), the EC50 was above 10 nM in assay [1] and below 0.1 nM in assay [2].

With `CCCCCC[C@H](NC(=O)[C@@H](NC(=O)[C@H](CC(C)C)NC(=O)[C@@H](NC(=O)CNC(=O)[C@@H](NC(=O)[C@H](C)NC(=O)[C@@H]1C[C@@H](O)CN1C(=O)[C@H](CC(N)=O)N(C)C(=O)CN(CCc1ccccc1)C(=O)[C@H](CCCNC(=N)N)NC(=O)[C@@H]1CCCN1C(=O)[C@H](CCCCNC(=N)N)NC(=O)[C@@H](CCC(N)=O)NC(=O)C(C)(C)C(=O)NCCc1cnc[nH]1)c1ccccc1)[C@@H](C)CC)[C@@H](C)O)C(N)=O` [compound 4] ({Malonyl(2,2-Me2,histaminyl)}-[dQ][hArg]PR[Gly(NCH2CH2Ph)][NMeN][Hyp]A[Phg]GILT[Aoc(2)]-NH2), the EC50 is above 10 nM in assay [1] and below 0.1 nM in assay [2].

Take `CCCCCC[C@H](NC(=O)[C@@H](NC(=O)[C@H](CC(C)C)NC(=O)[C@@H](NC(=O)CNC(=O)[C@@H](NC(=O)[C@H](C)NC(=O)[C@@H]1C[C@@H](O)CN1C(=O)[C@H](CC(N)=O)N(C)C(=O)CN(CCc1ccccc1)C(=O)[C@H](CCCNC(=N)N)NC(=O)[C@@H]1CCCN1C(=O)[C@@H](CCCCNC(=N)N)NC(=O)[C@H](CCC(N)=O)NC(=O)C(C)(C)C(=O)NCCc1cnc[nH]1)c1ccccc1)[C@@H](C)CC)[C@@H](C)O)C(N)=O` [compound 5] ({Malonyl(2,2-Me2,histaminyl)}-Q[d(hArg)]PR[Gly(NCH2CH2Ph)][NMeN][Hyp]A[Phg]GILT[Aoc(2)]-NH2): the EC50 was above 10 nM in assay [1] and below 0.1 nM in assay [2].

For the compound `CCCCCC[C@H](NC(=O)[C@@H](NC(=O)[C@H](CC(C)C)NC(=O)[C@@H](NC(=O)CNC(=O)[C@@H](NC(=O)[C@H](C)NC(=O)[C@@H]1C[C@@H](O)CN1C(=O)[C@H](CC(N)=O)N(C)C(=O)CN(CCc1ccccc1)C(=O)[C@H](CCCNC(=N)N)NC(=O)[C@H]1CCCN1C(=O)[C@H](CCCCNC(=N)N)NC(=O)[C@H](CCC(N)=O)NC(=O)C(C)(C)C(=O)NCCc1cnc[nH]1)c1ccccc1)[C@@H](C)CC)[C@@H](C)O)C(N)=O` [compound 6] ({Malonyl(2,2-Me2,histaminyl)}-Q[hArg][dP]R[Gly(NCH2CH2Ph)][NMeN][Hyp]A[Phg]GILT[Aoc(2)]-NH2), the EC50 was above 10 nM in assay [1] and below 0.1 nM in assay [2].
